# Source: publication PMC9783573, “Introduction of a SiFA Moiety into the D-Glutamate Chain of DOTA-PP-F11N Results in Radiohybrid-Based CCK-2R-Targeted Compounds with Improved Pharmacokinetics In Vivo” (Pharmaceuticals, 2022)
# Like-named read-outs stand apart in the source and are kept apart here. Non-standard residues stand in square brackets, D forms with d. Residues, ends and D or L forms follow the SMILES beside them. *: point of attachment. X1 = O=C(O)CN1CCN(CC(=O)O)CCN([C@H](CCC(=O)*)C(=O)O)CCN(CC(=O)O)CC1; Benzoyl(4-SiFtBu2) = CC(C)(C)[Si](F)(c1ccc(C(=O)*)cc1)C(C)(C)C; Nle = CCCC[C@H](N)C(=O)O; dDap = NC[C@@H](N)C(=O)O
# Key:
# [1] = system: AR42J tumour-bearing CB17-SCID mice; test: Biodistribution at 24 h p.i. in AR42J tumour-bearing CB17-SCID mice; type: in vivo; details: vs [177Lu]Lu-DOTA-PP-F11N
# Method: Figure 4 Biodistribution of the reference compound, [^177Lu]Lu-DOTA-PP-F11N (blue), the α-linked [^177Lu]Lu-(R)-DOTAGA-rhCCK-9 (red) and the γ-linked [^177Lu]Lu-(R)-DOTAGA-rhCCK-16 (green) in selected organs (%ID/g) at 24 h p.i. in AR42J tumour-bearing CB17-SCID mice (100 pmol each, n = 4). Data is expressed as mean ± SD.
# All animal experiments were conducted in accordance with general animal welfare regulations in Germany (German animal protection act, in the edition of the announcement, dated 18 May 2006, as amended by Article 280 of 19 June 2020, approval no. ROB-55.2-1-2532.Vet_02-18-109 by the General Administration of Upper Bavaria) and the institutional guidelines for the care and use of animals. CB17-SCID mice of both genders and aged 2–12 months (Charles River Laboratories International Inc., Sulzfeld, Germany) were allowed to acclimate at the in-house animal facility for at least one week prior to tumour cell inoculation was performed. Tumour xenografts were generated using AR42J cells (5.0 × 10^6 cells per 200 µL) suspended in a 1/1 mixture (v/v) of RPMI 1640 medium and Cultrex® Basement Membrane Matrix Type 3 (Trevigen, Gaithersburg, MD, USA). This suspension was inoculated subcutaneously onto the right shoulder and animals were used when tumour volume was >100 mm^3 (1–2 week after inoculation). Exclusion criteria for animals from an experiment were either weight loss higher than 20%, a tumour size above 1500 mm^3, an ulceration of the tumour, respiratory distress or a change of behaviour. None of these criteria applied to any animal from the experiment. Neither randomisation nor blinding was applied in the allocation of the experiments. Health status is SPF according to FELASA.
# (§1) For biodistribution studies, the ^177Lu-labelled compound (approx. 2–3 MBq, 100 pmol) was injected into a lateral tail vein (n = 4) of anesthetised (2% isoflurane) AR42J tumour-bearing CB-17-SCID mice. At 24 h post-injection (p.i.), the mice were euthanised. Thereafter, the pertinent organs were removed, weighed and measured using a γ-counter.
# [2] = Lipophilicity, n-octanol/PBS (pH 7.4) distribution coefficient; type: physicochemical
# Method: Lipophilicity (depicted as octanol-phosphate-buffered saline solution (PBS, pH = 7.4) distribution coefficient, logD7.4) was determined via dissolving the ^177Lu-labelled peptide (approx. 1 MBq) in a mixture (1/1, v/v) of n-octanol and PBS. The suspension was vortexed in a reaction vial (1.5 mL) for 3 min at RT and the vial was centrifuged at 9000× […] for 5 min (Biofuge 15, Heraus Sepatech GmbH, Osterode, Germany). 200 μL aliquots of both layers were measured separately in a γ-counter (Perkin Elmer, Waltham, MA, USA). The experiment was repeated at least five times.
# in vivo = test: in vivo; parameters: species or system mice; details: mouse, 24 h p.i.
# Method: as §1
# For all competition studies, 2.90 mg/kg (40 nmol) of [^natLu]Lu-DOTA-MGS5 (10^−3 M in phosphate-buffered saline) were co-administered.
# Figure S4. (a) Biodistribution of [177Lu]Lu-DOTA-rhCCK-16 (100 pmol) co-injected with [natLu]Lu-DOTA-MGS5
# (40 nmol) in selected organs (%ID/g) at 24 h p.i. in AR42J tumour-bearing CB17-SCID mice. Data is expressed as
# mean ± SD (n = 2). (b) Representative µSPECT/CT images of [177Lu]Lu-DOTA-rhCCK-16 co-injected with [natLu]Lu-
# DOTA-MGS5 (40 nmol) at 24 h p.i. in AR42J tumour-bearing CB17- SCID mice.
# (1 picture or pasted object on this page, not shown here)
# [3] = first patient studies; cited from earlier work
# [4] = 177Lu-labelled peptide, n-octanol/PBS pH 7.4, read-out: logD7.4
smiles,measurement,setting,value
"CCCC[C@H](NC(=O)[C@H](Cc1c[nH]c2ccccc12)NC(=O)CNC(=O)[C@H](Cc1ccc(O)cc1)NC(=O)[C@H](C)NC(=O)[C@@H](CCC(=O)O)NC(=O)[C@@H](CCC(=O)O)NC(=O)[C@@H](CCC(=O)O)NC(=O)[C@@H](CCC(=O)O)NC(=O)[C@@H](CCC(=O)O)NC(=O)[C@@H](CCC(=O)O)NC(=O)[C@@H](CCC(=O)O)NC(=O)[C@@H](CCC(=O)O)NC(=O)[C@@H](CNC(=O)c1ccc([Si](F)(C(C)(C)C)C(C)(C)C)cc1)NC(=O)CC[C@H](C(=O)O)N1CCN(CC(=O)O)CCN(CC(=O)O)CCN(CC(=O)O)CC1)C(=O)N[C@@H](CC(=O)O)C(=O)N[C@@H](Cc1ccccc1)C(N)=O [[nat/177Lu]Lu-(R)-DOTAGA-rhCCK-9, metal not drawn] (X1-[dDap](Benzoyl(4-SiFtBu2))[dE][dE][dE][dE][dE][dE][dE][dE]AYGW[Nle]DF-NH2)",fold higher activity levels in the tumour than the reference ligand,[1],3 fold
same,logD,[2]; [4],-2.84 ± 0.04
"CCCC[C@H](NC(=O)[C@H](Cc1c[nH]c2ccccc12)NC(=O)CNC(=O)[C@H](Cc1ccc(O)cc1)NC(=O)[C@H](C)NC(=O)CC[C@@H](NC(=O)CC[C@@H](NC(=O)CC[C@@H](NC(=O)CC[C@@H](NC(=O)CC[C@@H](NC(=O)CC[C@@H](NC(=O)[C@@H](CNC(=O)c1ccc([Si](F)(C(C)(C)C)C(C)(C)C)cc1)NC(=O)CC[C@H](C(=O)O)N1CCN(CC(=O)O)CCN(CC(=O)O)CCN(CC(=O)O)CC1)C(=O)O)C(=O)O)C(=O)O)C(=O)O)C(=O)O)C(=O)O)C(=O)N[C@@H](CC(=O)O)C(=O)N[C@@H](Cc1ccccc1)C(N)=O [[nat/177Lu]Lu-(R)-DOTAGA-rhCCK-16, metal not drawn]",fold higher activity levels in the tumour than the reference ligand,[1],8 fold
same,logD,[2]; [4],-2.54 ± 0.05
same,tissue uptake at 24 h,"in vivo; CB17-SCID, iv, total radioactivity, competition, read-out: Activity levels in the stomach, co-injection of excess [natLu]Lu-DOTA-MGS5",< 0.3 %ID/g
same,tissue uptake at 24 h,"in vivo; CB17-SCID, iv, total radioactivity, competition, read-out: activity levels in the tumour, co-injection of excess [natLu]Lu-DOTA-MGS5",< 1 %ID/g
same,tissue uptake at 24 h,"in vivo; 100 pmol + 40 nmol [natLu]Lu-DOTA-MGS5, n = 2, read-out: Biodistribution competition studies, Adrenal",0.4 ± 0.11 %ID/g
same,tissue uptake at 24 h,"in vivo; 100 pmol + 40 nmol [natLu]Lu-DOTA-MGS5, n = 2, read-out: Biodistribution competition studies, Blood",0.05 %ID/g
same,tissue uptake at 24 h,"in vivo; 100 pmol + 40 nmol [natLu]Lu-DOTA-MGS5, n = 2, read-out: Biodistribution competition studies, Bone",0.24 ± 0.04 %ID/g
same,tissue uptake at 24 h,"in vivo; 100 pmol + 40 nmol [natLu]Lu-DOTA-MGS5, n = 2, read-out: Biodistribution competition studies, Heart",0.13 ± 0.01 %ID/g
same,tissue uptake at 24 h,"in vivo; 100 pmol + 40 nmol [natLu]Lu-DOTA-MGS5, n = 2, read-out: Biodistribution competition studies, Intestine",0.16 ± 0.03 %ID/g
same,tissue uptake at 24 h,"in vivo; 100 pmol + 40 nmol [natLu]Lu-DOTA-MGS5, n = 2, read-out: Biodistribution competition studies, Kidney",105 ± 21 %ID/g
same,tissue uptake at 24 h,"in vivo; 100 pmol + 40 nmol [natLu]Lu-DOTA-MGS5, n = 2, read-out: Biodistribution competition studies, Liver",2.31 ± 0.66 %ID/g
same,tissue uptake at 24 h,"in vivo; 100 pmol + 40 nmol [natLu]Lu-DOTA-MGS5, n = 2, read-out: Biodistribution competition studies, Lung",2.59 ± 1.27 %ID/g
same,tissue uptake at 24 h,"in vivo; 100 pmol + 40 nmol [natLu]Lu-DOTA-MGS5, n = 2, read-out: Biodistribution competition studies, Muscle",0.06 ± 0.04 %ID/g
same,tissue uptake at 24 h,"in vivo; 100 pmol + 40 nmol [natLu]Lu-DOTA-MGS5, n = 2, read-out: Biodistribution competition studies, Pancreas",0.2 ± 0.01 %ID/g
same,tissue uptake at 24 h,"in vivo; 100 pmol + 40 nmol [natLu]Lu-DOTA-MGS5, n = 2, read-out: Biodistribution competition studies, Spleen",1.73 ± 0.01 %ID/g
same,tissue uptake at 24 h,"in vivo; 100 pmol + 40 nmol [natLu]Lu-DOTA-MGS5, n = 2, read-out: Biodistribution competition studies, Stomach",0.15 ± 0.04 %ID/g
same,tissue uptake at 24 h,"in vivo; 100 pmol + 40 nmol [natLu]Lu-DOTA-MGS5, n = 2, read-out: Biodistribution competition studies, Tumour",0.91 ± 0.04 %ID/g
"CSCC[C@H](NC(=O)[C@H](Cc1c[nH]c2ccccc12)NC(=O)CNC(=O)[C@H](Cc1ccc(O)cc1)NC(=O)[C@H](C)NC(=O)[C@@H](CCC(=O)O)NC(=O)[C@@H](CCC(=O)O)NC(=O)[C@@H](CCC(=O)O)NC(=O)[C@@H](CCC(=O)O)NC(=O)[C@@H](CCC(=O)O)NC(=O)[C@@H](CCC(=O)O)NC(=O)CN1CCN(CC(=O)O)CCN(CC(=O)O)CCN(CC(=O)O)CC1)C(=O)N[C@@H](CC(=O)O)C(=O)N[C@@H](Cc1ccccc1)C(N)=O [[nat/177Lu]Lu-CP04, metal not drawn, reference compound]",logD,[2]; pH 7.4,-3.8 ± 0.1
"CCCC[C@H](NC(=O)[C@H](Cc1c[nH]c2ccccc12)NC(=O)CNC(=O)[C@H](Cc1ccc(O)cc1)NC(=O)[C@H](C)NC(=O)[C@@H](CCC(=O)O)NC(=O)[C@@H](CCC(=O)O)NC(=O)[C@@H](CCC(=O)O)NC(=O)[C@@H](CCC(=O)O)NC(=O)[C@@H](CCC(=O)O)NC(=O)[C@@H](CCC(=O)O)NC(=O)CN1CCN(CC(=O)O)CCN(CC(=O)O)CCN(CC(=O)O)CC1)C(=O)N[C@@H](CC(=O)O)C(=O)N[C@@H](Cc1ccccc1)C(N)=O [[nat/177Lu]Lu-DOTA-PP-F11N, metal not drawn, reference compound]",median (interquartile range) absorbed tumour dose,[3],0.88 Gy/GBq
same,logD,[2]; [4],-4.75 ± 0.07
